The text below walks through data of patent publication US20220409578A1, “FUNCTIONALIZED 1,3-BENZENE DIOLS AND THEIR METHOD OF USE FOR THE TREATMENT OF RADIATION DERMATITIS AND OTHER SKIN DISORDERS” (KANNALIFE SCIENCES, INC., priority 2019, published 2022).

In one data set the test system is TNFα. Description: TNFα release from UV-B irradiated human epidermal keratinocytes (ELISA). The class given is cell-based. The note with it: Keratinocyte, light or radiation study, UV-B 25 mJ/cm^2 (280-312 nm), read-out: IC50 of TNFα inhibition. On the procedure:
(§1) Normal human epidermal keratinocytes cultures were utilized to measure the release of proinflammatory cytokines and chemokines. Primary epidermal keratinocytes from neonatal donors were used from human origin and purchased from Thermo-Fisher (Cat No. A13401). […] Cells were cultured until the second passage and then acclimated for 48 hours more before UV-B irradiation. Dosing procedures and cell groups were identified using appropriate cell culture 24-well plates. The cell culture incubator was set at 5% v/v CO2 with temperature and humidity maintained at 36-38° C. and 40-70%, respectively. The test and control substances were administered to HKGS-depleted medium in triplicates. A fixed 5 μL/well from 100× stock dose volume was administered to 500 μL of media to each cell culture well on Day 3 and pre-incubated for 6 hours and then post-UVB incubated for 18 hours. […] Media supernatants were harvested and analyzed for TNFα and IL-1β levels by ELISA method. Cytokine levels were assessed from cell culture media supernatants using BD Biosciences OptEIA™ Human TNFα (Cat. No. 555212) and IL-1β (Cat. No. 557953) and ELISA set kit and Reagent Set B (Cat. No. 550534) according the manufacture's specifications. Absorbance was measured at 450 nm using a plate reader and calculated cytokine levels were determined from a standard curve.
On the technique in general: An ELISA detects its analyte on a solid surface through an enzyme-linked reagent.

For a further data set, the system named is IL-8. The experiment in a line: IL-8 release, nickel-induced allergy in human dermal microvascular endothelial cells (ELISA). The data set is classed as cell-based. The note with it: co-treatment with NiSO4, HDMECs. The method, then:
Dermal Microvascular endothelial cells of human origin were cultured in vitro using standard conditions (37° C., 95% v/v air, 5% v/v CO2). Human cells were selected as relevant to cell types within skin tissues for this development program. Cell culture methods are commonly used in non-clinical studies conducted on pharmaceutical products. […] Cells were cultured until the third and fourth passage and then acclimated for 24 hours before Nickel induction and dosing procedures. Cell treatment groups were identified using appropriate 96-well plates. The test and control articles were administered to medium containing 1 mM NiSO4 in triplicates. The negative control group received vehicle-only (0.1% v/v final) dose. A fixed 0.1 μL/well from 1000× stock dose volume was administered to 100 μL of media to each cell culture well on Day 2 and incubated for 6 hours at 37 degrees. These cell cultures were also utilized to determine the concentrations of test agent that were non-toxic after 24 hours of incubation.
Assay for Interleukin-8: Test material was applied in vitro for the ability to inhibit pro-inflammatory (IL-8) cytokine secretion by cultured HDMECs co-treated with Nickel (NiSO4). Clobetasol propionate was tested as positive control material for anti-inflammatory activity. The pro-inflammatory cytokine (IL-8) was quantified by enzyme-linked immunosorbent assay (ELISA) after inflammatory induction and incubation with test and control materials. Interleukin-8 levels in cell culture medium are markers of inflammation signaling by endothelial cells present in skin microvascular tissue in response to irritation. Interleukin-8 (IL-8) levels were assessed using BD Biosciences OptEIA™ Human IL-8 ELISA Set kit (Cat. No. 555244) and Reagent Set B (Cat. No. 550534) according to the manufacture's specifications. Absorbance was measured at 450 nm using plate reader and interleukin-8 levels were calculated from a standard curve.

The next data set relates to IL-1β. The experiment in a line: IL-1β release from UV-B irradiated human epidermal keratinocytes (ELISA). The class given is cell-based. The note with it: Keratinocyte, light or radiation study; UV-B 25 mJ/cm^2, human epidermal keratinocytes; read-out: IC50 of interleukin-1β inhibition. On the procedure:
as §1

The format of data set [1] is in vitro ADME, porcine. The method, then:
Percutaneous absorption (Franz cell). For these studies, porcine ear skin (n=3; 1.5 in^2) obtained from Animal Technologies, Inc. (Tyler, T X) were utilized, Skins were thawed for 30 min at room temperature. After thawing, skin was placed over receptor compartment of the unjacketed Franz cell chamber with stir bar obtained from Permegear and covered with the donor compartment. The clamp was then placed to hold the cell together. The receptor compartment was filled with 12 mL of 1M PBS buffer+4% BSA and 0.1% sodium azide through the sampling port using a syringe. Franz cell was placed on a stir plate at ˜600 RPM and heated till the buffer reached 37° C. 400 μL of 3H—H2O (˜1.5 million counts) was then placed on the membrane for 5 min. […] After 30 min, 250 μL of the receptor buffer was removed in triplicate and counted to check the integrity of the skin (>0.4 μl/cm^2 was considered acceptable). […] Extraction and homogenization were performed to quantify the amount of formulation remaining in the epidermis and dermis. […] The concentration of KLS-13022 was measured by liquid chromatography coupled with tandem mass spectrometry (LC/MS/MS). […] The analytes and internal standard were detected using an Applied Biosystem API-3000 mass spectrometer equipped with a Turbo-Ion Spray (Electrospray, ESI) source that was operated in multiple reaction monitoring mode (MRM) under positive ion mode.

With `C=C(C)[C@@H]1CCC(C)=C[C@H]1c1c(O)cc(CC2CN(C(=O)OCC)C2)cc1O` [KLS-13022, ethyl 3-(3,5-dihydroxy-4-((1R,6R)-3-methyl-6-(prop-1-en-2-yl)cyclohex-2-enyl)benzyl)azetidine-1-carboxylate], the IC50 with TNFα worked out at 380 nM; in the data set on IL-8 (Homo sapiens, Endothelial cell, read-out: IC50 of IL-8 inhibition), 300 nM; with IL-1β, 380 nM. In addition, the “maximum IL-8 inhibition” value in the data set with IL-8 worked out at 78%. Moreover, the “penetration into receptor solution” value in data set [1] was “not into the receptor solution”. Also, the “amount in epidermis/dermis (viable skin)” value in data set [1] (pig, 24 h, 1 % w/v) is on record as 0.324%.

Broadly, the IC50 is the concentration at which inhibition is half-maximal.
